We go through 7 compounds from PubChem BioAssay (NCI).

Some test systems named below: UACC-257 melanoma; MALME-3M melanoma; SR leukemia; NCI-H460 lung; EKVX NSCLC; SF-539 CNS; SNB-75 CNS; CCRF-CEM leukemia; MCF7 breast; PC-3 prostate; MOLT-4 leukemia; NCI-H226 lung; UO-31 renal; OVCAR-4 ovarian; SNB-19 CNS; A498 renal; NCI-H522 lung; M14 melanoma; IGROV1 ovarian; SK-MEL-5 melanoma.
Common to all, as to assay: NCI tumour cell line growth inhibition, 48 h

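Compound exposure: 48 hours, 5 concentrations, 96-well plates. The concentration for full growth arrest is given as TGI.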

`Cc1cc(C)c(O)c(CN2CCN(C(C)C)CCN(C(C)C)CC2)c1`: the TGI in the test with UACC-257 melanoma is 35.5 µM; in the test on MALME-3M melanoma, 31.9 µM; in the test with SR leukemia, 64 µM; in the test on NCI-H460 lung, over 100 µM; with EKVX NSCLC, over 100 µM; in the test on SF-539 CNS, 30.8 µM. In addition, the TGI was over 100 µM with SNB-75 CNS; 83.9 µM in the test with CCRF-CEM leukemia; over 100 µM in the test with MCF7 breast; over 100 µM with PC-3 prostate; 47.3 µM in the test with MOLT-4 leukemia; over 100 µM with NCI-H226 lung. Further, the TGI was 82.9 µM with UO-31 renal; over 100 µM with OVCAR-4 ovarian; over 100 µM in the test on SNB-19 CNS; over 100 µM with A498 renal; 68 µM with NCI-H522 lung; 26.2 µM in the test on M14 melanoma. This compound displayed a TGI in the test with IGROV1 ovarian of 18.1 µM.

On to `CCC1CCN=C(NS(=O)(=O)c2cc(C)c(Cl)cc2S)N1` (stereo unspecified), for which the TGI with UACC-257 melanoma was over 100 µM; in the test on MALME-3M melanoma it was 92.9 µM; with SR leukemia, over 100 µM; in the test with SK-MEL-5 melanoma, over 100 µM; with NCI-H460 lung, over 100 µM; with EKVX NSCLC, over 100 µM. The TGI in the test on SF-539 CNS is over 100 µM; with SNB-75 CNS it was over 100 µM; with CCRF-CEM leukemia it was 88.1 µM; with MCF7 breast, over 100 µM; in the test on PC-3 prostate, over 100 µM; with MOLT-4 leukemia it was 71.6 µM. Moreover, the TGI with NCI-H226 lung was 73.6 µM; in the test on UO-31 renal it was 82.4 µM; with OVCAR-4 ovarian, over 100 µM; in the test with SNB-19 CNS, over 100 µM; in the test with A498 renal it was over 100 µM; with NCI-H522 lung it was 76.9 µM. In addition, the TGI with M14 melanoma and in the test with IGROV1 ovarian was over 100 µM in each case.

With `O=C(NNC1=NCCCCN1)Nc1ccc(Cl)cc1`, the TGI in the test with UACC-257 melanoma, with MALME-3M melanoma, in the test with SR leukemia, in the test on SK-MEL-5 melanoma, in the test on NCI-H460 lung and with EKVX NSCLC was over 100 µM each time. Also, the TGI with SF-539 CNS is over 100 µM; in the test on SNB-75 CNS, over 100 µM; in the test with CCRF-CEM leukemia, over 100 µM; in the test on MCF7 breast, over 100 µM; in the test with PC-3 prostate it was over 100 µM; in the test with MOLT-4 leukemia, 72.4 µM. In addition, the TGI with NCI-H226 lung, with UO-31 renal, in the test with OVCAR-4 ovarian, in the test with SNB-19 CNS, with A498 renal and in the test on NCI-H522 lung was over 100 µM in each case. In the test with IGROV1 ovarian, the TGI is over 100 µM.

For the compound `COC(=O)c1ccccc1CC(Cc1ccc2c(c1)CCC2)C(=O)OC` (stereo unspecified), the TGI in the test on UACC-257 melanoma was over 100 µM; in the test on MALME-3M melanoma it was over 100 µM; in the test with SR leukemia, over 100 µM; in the test on SK-MEL-5 melanoma, 84.1 µM; in the test with NCI-H460 lung it was over 100 µM; in the test with EKVX NSCLC it was over 100 µM. Besides, the TGI in the test with SF-539 CNS, with SNB-75 CNS, with CCRF-CEM leukemia, in the test on MCF7 breast, in the test on PC-3 prostate and with MOLT-4 leukemia was over 100 µM throughout. Also, the TGI in the test with NCI-H226 lung, in the test with UO-31 renal, in the test with OVCAR-4 ovarian, in the test with SNB-19 CNS, in the test on A498 renal and with NCI-H522 lung was over 100 µM in each case. The TGI with M14 melanoma and with IGROV1 ovarian was over 100 µM in each case.

In the case of `Clc1ccc(C(Cc2cccc(Cl)c2)c2c(Cl)nc(N3CCNCC3)nc2Cl)cc1` (stereo unspecified), the TGI with UACC-257 melanoma was 37.6 µM; in the test with MALME-3M melanoma, 26.4 µM; with SR leukemia it was 17.5 µM; in the test on SK-MEL-5 melanoma, 29.7 µM; in the test on NCI-H460 lung, 30.9 µM; with EKVX NSCLC, over 100 µM. The TGI came out at 35.2 µM in the test with SF-539 CNS; 26.7 µM in the test on SNB-75 CNS; 31.9 µM with CCRF-CEM leukemia; 24.6 µM in the test with MCF7 breast; 30.6 µM in the test on PC-3 prostate; 24.6 µM in the test on MOLT-4 leukemia. Further, the TGI is over 100 µM in the test with NCI-H226 lung; 25.8 µM in the test on UO-31 renal; 31.3 µM in the test with OVCAR-4 ovarian; 30.5 µM in the test with SNB-19 CNS; 28.5 µM with A498 renal; 28 µM with NCI-H522 lung. Also, the TGI is 26.2 µM in the test with M14 melanoma and over 100 µM in the test with IGROV1 ovarian.

Turning to `CC1=NC2c3c(-c4ccc(Cl)cc4)cn(-c4ccc(C)cc4)c3N=CN2N1` (stereo unspecified), the TGI in the test on UACC-257 melanoma, with MALME-3M melanoma, with SR leukemia, in the test with SK-MEL-5 melanoma, in the test with NCI-H460 lung and with EKVX NSCLC was over 100 µM each time. Further, the TGI was over 100 µM in the test on SF-539 CNS; 97.9 µM with SNB-75 CNS; over 100 µM in the test on CCRF-CEM leukemia; over 100 µM in the test with MCF7 breast; over 100 µM in the test with PC-3 prostate; over 100 µM with NCI-H226 lung. In addition, the TGI in the test with UO-31 renal is over 100 µM; in the test on OVCAR-4 ovarian, 33.3 µM; in the test with SNB-19 CNS, over 100 µM; in the test on A498 renal, over 100 µM; with NCI-H522 lung it was over 100 µM; in the test with M14 melanoma, over 100 µM. The TGI in the test on IGROV1 ovarian was over 100 µM.

As to `CCN(CC)C1CCC(C2c3cc4c(cc3OC(N3CCOCC3)C2C)OCO4)CC1` (stereo unspecified), the TGI in the test on UACC-257 melanoma is over 100 µM; in the test with MALME-3M melanoma it was 90.7 µM; in the test with SR leukemia, over 100 µM; in the test with SK-MEL-5 melanoma, over 55.7 µM; in the test with NCI-H460 lung it was over 100 µM; with EKVX NSCLC, over 100 µM. The TGI in the test with SF-539 CNS was 57 µM; in the test on SNB-75 CNS, over 100 µM; in the test with CCRF-CEM leukemia it was over 100 µM; in the test on MCF7 breast it was over 84.1 µM; in the test on PC-3 prostate it was over 100 µM; in the test on MOLT-4 leukemia, over 68.2 µM. The TGI in the test with UO-31 renal was over 100 µM; in the test with OVCAR-4 ovarian, over 100 µM; in the test on SNB-19 CNS it was over 100 µM; in the test on A498 renal, 60.7 µM; in the test on NCI-H522 lung it was 72.5 µM; in the test with M14 melanoma it was over 69.3 µM. Besides, the TGI with IGROV1 ovarian was over 100 µM.
